What was measured:
Experiment in all cases: relative viability (nuclei count vs DMSO), 5 days (fraction); higher = more cells survive
[1] = test system: NCI-H1437
In short: (§1)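 A single step with final 0.05% Triton X-100, 1% formaldehyde and 1 ug/ml Hoechst fixed the cells and stained nuclei 5 days after treatment. Lung cancer cell lines in 1536-well plates had been treated by pin tool the day after seeding with one drug alone or a fixed anchor-drug dose plus five library-drug doses (not always all listed) in √10 steps, and nuclei were counted on 4× images. Relative viability is the ratio of nuclei in treated wells to nuclei in vehicle wells, taken as the median of duplicate plates.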

[2] = test system: SK-MES-1
In short: as §1

[3] = test system: NCI-H358
In short: as §1

[4] = test system: HCC-78
In short: as §1

[5] = test system: PC-14
In short: as §1

[6] = test system: NCI-H661
In short: as §1

[7] = test system: HCC-827
In short: as §1

[8] = test system: NCI-H727
In short: as §1

[9] = test system: SK-LU-1
In short: as §1

[10] = test system: NCI-H1944
In short: as §1

[11] = test system: ChaGo-K-1
In short: as §1

[12] = test system: NCI-H2342
In short: as §1

[13] = test system: LCLC-103H
In short: as §1

[14] = test system: UMC-11
In short: as §1

[15] = test system: HCC-366
In short: as §1

[16] = test system: NCI-H2085
In short: as §1

[17] = test system: EPLC-272H
In short: as §1

[18] = test system: COR-L 105
In short: as §1

[19] = test system: HCC-15
In short: as §1

[20] = test system: NCI-H3122
In short: as §1

[21] = test system: NCI-H1792
In short: as §1

[22] = test system: HCC-44
In short: as §1

## COCC1(CO)C(=O)C2CCN1CC2 (stereo not given) [PRIMA-1MET] + COc1cc2c(Oc3ccc(NC(=O)C4(C(=O)Nc5ccc(F)cc5)CC4)cc3F)ccnc2cc1OCCCN1CCOCC1 [Foretinib] (partner 0.25 µM)
[1]; first compound 0.2 µM
  relative viability: 1.32
[1]; first compound 0.6325 µM
  relative viability: 1.21
[1]; first compound 2 µM
  relative viability: 1.24
[1]; first compound 6.325 µM
  relative viability: 1.21
[1]; first compound 20 µM
  relative viability: 1.17
[2]; first compound 0.2 µM
  relative viability: 1.11
[2]; first compound 0.6325 µM
  relative viability: 0.941
[2]; first compound 2 µM
  relative viability: 0.795
[2]; first compound 6.325 µM
  relative viability: 1.15
[2]; first compound 20 µM
  relative viability: 0.955
[3]; first compound 0.2 µM
  relative viability: 0.881
[3]; first compound 2 µM
  relative viability: 0.592
[3]; first compound 6.325 µM
  relative viability: 0.634
[3]; first compound 20 µM
  relative viability: 0.0429
[4]; first compound 0.2 µM
  relative viability: 0.671
[4]; first compound 0.6325 µM
  relative viability: 0.477
[4]; first compound 6.325 µM
  relative viability: 0.54
[4]; first compound 20 µM
  relative viability: 0.441
[5]; first compound 0.2 µM
  relative viability: 1.01
[5]; first compound 0.6325 µM
  relative viability: 0.87
[5]; first compound 2 µM
  relative viability: 0.931
[5]; first compound 6.325 µM
  relative viability: 1.12
[5]; first compound 20 µM
  relative viability: 0.914
[6]; first compound 0.2 µM
  relative viability: 1.07
[6]; first compound 0.6325 µM
  relative viability: 1
[6]; first compound 2 µM
  relative viability: 0.975
[6]; first compound 6.325 µM
  relative viability: 0.988
[6]; first compound 20 µM
  relative viability: 0.979
[7]; first compound 0.2 µM
  relative viability: 1.09
[7]; first compound 0.6325 µM
  relative viability: 0.976
[7]; first compound 2 µM
  relative viability: 0.749
[7]; first compound 6.325 µM
  relative viability: 1.01
[7]; first compound 20 µM
  relative viability: 0.929
[8]; first compound 0.2 µM
  relative viability: 0.636
[8]; first compound 0.6325 µM
  relative viability: 0.674
[8]; first compound 2 µM
  relative viability: 0.782
[8]; first compound 6.325 µM
  relative viability: 1.03
[8]; first compound 20 µM
  relative viability: 0.44
[9]; first compound 0.2 µM
  relative viability: 1
[9]; first compound 0.6325 µM
  relative viability: 0.863
[9]; first compound 2 µM
  relative viability: 0.885
[9]; first compound 6.325 µM
  relative viability: 0.834
[9]; first compound 20 µM
  relative viability: 0.405
[10]; first compound 0.2 µM
  relative viability: 1.02
[10]; first compound 0.6325 µM
  relative viability: 0.789
[10]; first compound 2 µM
  relative viability: 0.837
[10]; first compound 6.325 µM
  relative viability: 0.881
[10]; first compound 20 µM
  relative viability: 0.861
[11]; first compound 0.2 µM
  relative viability: 1.03
[11]; first compound 0.6325 µM
  relative viability: 0.838
[11]; first compound 2 µM
  relative viability: 0.911
[11]; first compound 6.325 µM
  relative viability: 1.01
[11]; first compound 20 µM
  relative viability: 0.859
[12]; first compound 0.2 µM
  relative viability: 1.06
[12]; first compound 0.6325 µM
  relative viability: 0.986
[12]; first compound 2 µM
  relative viability: 0.887
[12]; first compound 6.325 µM
  relative viability: 1.01
[12]; first compound 20 µM
  relative viability: 0.99
[13]; first compound 0.2 µM
  relative viability: 0.915
[13]; first compound 0.6325 µM
  relative viability: 0.718
[13]; first compound 2 µM
  relative viability: 0.698
[13]; first compound 6.325 µM
  relative viability: 0.726
[13]; first compound 20 µM
  relative viability: 0.189
[14]; first compound 0.2 µM
  relative viability: 1.15
[14]; first compound 0.6325 µM
  relative viability: 0.916
[14]; first compound 2 µM
  relative viability: 0.963
[14]; first compound 6.325 µM
  relative viability: 0.979
[14]; first compound 20 µM
  relative viability: 1.02
[15]; first compound 0.2 µM
  relative viability: 0.84
[15]; first compound 0.6325 µM
  relative viability: 0.946
[15]; first compound 2 µM
  relative viability: 0.826
[15]; first compound 6.325 µM
  relative viability: 0.974
[15]; first compound 20 µM
  relative viability: 0.207
[16]; first compound 0.2 µM
  relative viability: 1.01
[16]; first compound 0.6325 µM
  relative viability: 1.01
[16]; first compound 2 µM
  relative viability: 0.772
[16]; first compound 6.325 µM
  relative viability: 0.53
[16]; first compound 20 µM
  relative viability: 0.122
[17]; first compound 2 µM
  relative viability: 0.603
[17]; first compound 6.325 µM
  relative viability: 0.896
[17]; first compound 20 µM
  relative viability: 0.105
[18]; first compound 0.2 µM
  relative viability: 1.48
[18]; first compound 0.6325 µM
  relative viability: 1.02
[18]; first compound 2 µM
  relative viability: 1.17
[18]; first compound 6.325 µM
  relative viability: 1.2
[18]; first compound 20 µM
  relative viability: 0.551
[19]; first compound 0.2 µM
  relative viability: 1.11
[19]; first compound 0.6325 µM
  relative viability: 0.986
[19]; first compound 2 µM
  relative viability: 1.03
[19]; first compound 6.325 µM
  relative viability: 1.02
[19]; first compound 20 µM
  relative viability: 0.555
[20]; first compound 0.2 µM
  relative viability: 0.739
[20]; first compound 0.6325 µM
  relative viability: 0.762
[20]; first compound 2 µM
  relative viability: 0.963
[20]; first compound 6.325 µM
  relative viability: 0.984
[20]; first compound 20 µM
  relative viability: 0.882

## COCC1(CO)C(=O)C2CCN1CC2 (stereo not given) [PRIMA-1MET] + C[C@@H](Oc1cc(-c2cnn(C3CCNCC3)c2)cnc1N)c1c(Cl)ccc(F)c1Cl [Crizotinib] (partner 1 µM)
[1]; first compound 0.2 µM
  relative viability: 1.07
[1]; first compound 0.6325 µM
  relative viability: 0.896
[1]; first compound 2 µM
  relative viability: 0.9
[1]; first compound 6.325 µM
  relative viability: 0.991
[1]; first compound 20 µM
  relative viability: 0.862
[2]; first compound 0.2 µM
  relative viability: 1.09
[2]; first compound 0.6325 µM
  relative viability: 0.968
[2]; first compound 2 µM
  relative viability: 1.03
[2]; first compound 6.325 µM
  relative viability: 0.943
[2]; first compound 20 µM
  relative viability: 0.997
[3]; first compound 0.2 µM
  relative viability: 0.688
[3]; first compound 0.6325 µM
  relative viability: 0.59
[3]; first compound 6.325 µM
  relative viability: 0.526
[3]; first compound 20 µM
  relative viability: 0.152
[4]; first compound 0.2 µM
  relative viability: 0.427
[4]; first compound 0.6325 µM
  relative viability: 0.34
[4]; first compound 6.325 µM
  relative viability: 0.353
[4]; first compound 20 µM
  relative viability: 0.0613
[5]; first compound 0.2 µM
  relative viability: 1.06
[5]; first compound 0.6325 µM
  relative viability: 0.852
[5]; first compound 2 µM
  relative viability: 0.853
[5]; first compound 6.325 µM
  relative viability: 0.975
[5]; first compound 20 µM
  relative viability: 1
[6]; first compound 0.2 µM
  relative viability: 1.15
[6]; first compound 6.325 µM
  relative viability: 1.11
[6]; first compound 20 µM
  relative viability: 0.999
[21]; first compound 0.2 µM
  relative viability: 1.08
[21]; first compound 0.6325 µM
  relative viability: 0.884
[21]; first compound 2 µM
  relative viability: 1.1
[21]; first compound 6.325 µM
  relative viability: 0.991
[21]; first compound 20 µM
  relative viability: 0.971
[22]; first compound 0.2 µM
  relative viability: 0.83
[22]; first compound 0.6325 µM
  relative viability: 0.67
[22]; first compound 2 µM
  relative viability: 0.867
[22]; first compound 6.325 µM
  relative viability: 0.86
[22]; first compound 20 µM
  relative viability: 0.807
[7]; first compound 0.2 µM
  relative viability: 1.06
[7]; first compound 0.6325 µM
  relative viability: 0.813
[7]; first compound 2 µM
  relative viability: 0.796
[7]; first compound 6.325 µM
  relative viability: 0.978
[7]; first compound 20 µM
  relative viability: 0.896
[8]; first compound 0.2 µM
  relative viability: 0.841
[8]; first compound 0.6325 µM
  relative viability: 0.873
[8]; first compound 2 µM
  relative viability: 0.82
[8]; first compound 6.325 µM
  relative viability: 0.715
[8]; first compound 20 µM
  relative viability: 0.117
[9]; first compound 0.2 µM
  relative viability: 0.93
[9]; first compound 0.6325 µM
  relative viability: 0.729
[9]; first compound 2 µM
  relative viability: 0.837
[9]; first compound 6.325 µM
  relative viability: 1.09
[9]; first compound 20 µM
  relative viability: 0.114
[10]; first compound 0.2 µM
  relative viability: 1.36
[10]; first compound 0.6325 µM
  relative viability: 0.817
[10]; first compound 6.325 µM
  relative viability: 1.09
[10]; first compound 20 µM
  relative viability: 1.06
[11]; first compound 0.2 µM
  relative viability: 1.31
[11]; first compound 0.6325 µM
  relative viability: 0.898
[11]; first compound 2 µM
  relative viability: 1.02
[11]; first compound 6.325 µM
  relative viability: 1.15
[11]; first compound 20 µM
  relative viability: 1.02
[13]; first compound 0.2 µM
  relative viability: 1.16
[13]; first compound 0.6325 µM
  relative viability: 1.05
[13]; first compound 2 µM
  relative viability: 0.894
[13]; first compound 6.325 µM
  relative viability: 1.11
[13]; first compound 20 µM
  relative viability: 1.06
[14]; first compound 0.2 µM
  relative viability: 0.536
[14]; first compound 0.6325 µM
  relative viability: 0.643
[14]; first compound 2 µM
  relative viability: 0.607
[14]; first compound 6.325 µM
  relative viability: 0.726
[14]; first compound 20 µM
  relative viability: 0.586
[15]; first compound 0.2 µM
  relative viability: 0.702
[15]; first compound 0.6325 µM
  relative viability: 0.515
[15]; first compound 6.325 µM
  relative viability: 0.506
[15]; first compound 20 µM
  relative viability: 0.009
[16]; first compound 0.2 µM
  relative viability: 0.886
[16]; first compound 0.6325 µM
  relative viability: 0.747
[16]; first compound 2 µM
  relative viability: 0.692
[16]; first compound 6.325 µM
  relative viability: 0.518
[16]; first compound 20 µM
  relative viability: 0.155
[17]; first compound 0.2 µM
  relative viability: 0.989
[17]; first compound 0.6325 µM
  relative viability: 0.867
[17]; first compound 2 µM
  relative viability: 0.816
[17]; first compound 6.325 µM
  relative viability: 0.851
[17]; first compound 20 µM
  relative viability: 0.262
[18]; first compound 0.2 µM
  relative viability: 0.918
[18]; first compound 0.6325 µM
  relative viability: 0.664
[18]; first compound 2 µM
  relative viability: 0.74
[18]; first compound 6.325 µM
  relative viability: 0.782
[18]; first compound 20 µM
  relative viability: 0.254
[19]; first compound 0.2 µM
  relative viability: 0.925
[19]; first compound 0.6325 µM
  relative viability: 0.786
[19]; first compound 2 µM
  relative viability: 0.802
[19]; first compound 6.325 µM
  relative viability: 0.807
[19]; first compound 20 µM
  relative viability: 0.706
[20]; first compound 0.2 µM
  relative viability: 0.317
[20]; first compound 0.6325 µM
  relative viability: 0.25
[20]; first compound 2 µM
  relative viability: 0.259
[20]; first compound 6.325 µM
  relative viability: 0.286
[20]; first compound 20 µM
  relative viability: 0.284

— the supplement of paper PMC10307832
